Source: PubChem BioAssay AID1918952 (Molecular Pharmacology Branch, DTP, NCI, 2023)

System: LG0703-F948-PDC complex spheroid viability
Assay: Anticancer human tumor LG0703-F948-PDC patient-derived lung adenocarcinoma cell line growth inhibition
Conditions: for IC50: curve of first compound; for viability, T/C: stronger effect = lower value
In short: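 Drug combinations with the LSD1 inhibitor iadademstat tested on tumor cells co-cultured as spheroids with endothelial cells and mesenchymal stem cells. Concentrations descended in half-log increments from clinical Cmax or 10 microM.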
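Note: spheroids exposed to agents for seven days before readout.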
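Throughout, for viability, T/C: 100% = DMSO vehicle control wells as normalization base.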

CC1(C)CCC(CN2CCN(c3ccc(C(=O)NS(=O)(=O)c4ccc(NCC5CCOCC5)c([N+](=O)[O-])c4)c(Oc4cnc5[nH]ccc5c4)c3)CC2)=C(c2ccc(Cl)cc2)C1 + NC1CC1c1ccc(-c2cccc(O)c2)cc1
IC50 (second compound 0.1 µM): 2.72 µM | IC50 (second compound 0.316 µM): 2.47 µM | IC50 (second compound 1 µM): 2.64 µM | IC50 (second compound 3.16 µM): 2.34 µM | IC50 (second compound 10 µM): 2.37 µM | viability, T/C (second compound 0.1 µM, first compound 0.0316 µM): 98.2% | viability, T/C (second compound 0.1 µM, first compound 0.1 µM): 113% | viability, T/C (second compound 0.1 µM, first compound 0.316 µM): 111% | viability, T/C (second compound 0.1 µM, first compound 1 µM): 98% | viability, T/C (second compound 0.1 µM, first compound 3.16 µM): 42.8% | viability, T/C (second compound 0.1 µM, first compound 10 µM): 3.56% | viability, T/C (second compound 0.316 µM, first compound 0.0316 µM): 102% | viability, T/C (second compound 0.316 µM, first compound 0.1 µM): 103% | viability, T/C (second compound 0.316 µM, first compound 0.316 µM): 100% | viability, T/C (second compound 0.316 µM, first compound 1 µM): 103% | viability, T/C (second compound 0.316 µM, first compound 3.16 µM): 35.6% | viability, T/C (second compound 0.316 µM, first compound 10 µM): 3% | viability, T/C (second compound 1 µM, first compound 0.0316 µM): 106% | viability, T/C (second compound 1 µM, first compound 0.1 µM): 104% | viability, T/C (second compound 1 µM, first compound 0.316 µM): 111% | viability, T/C (second compound 1 µM, first compound 1 µM): 85.6% | viability, T/C (second compound 1 µM, first compound 3.16 µM): 43.8% | viability, T/C (second compound 1 µM, first compound 10 µM): 5.17% | viability, T/C (second compound 3.16 µM, first compound 0.0316 µM): 104% | viability, T/C (second compound 3.16 µM, first compound 0.1 µM): 81.7% | viability, T/C (second compound 3.16 µM, first compound 0.316 µM): 102% | viability, T/C (second compound 3.16 µM, first compound 1 µM): 111% | viability, T/C (second compound 3.16 µM, first compound 3.16 µM): 32.5% | viability, T/C (second compound 3.16 µM, first compound 10 µM): 3.01% | viability, T/C (second compound 10 µM, first compound 0.0316 µM): 103% | viability, T/C (second compound 10 µM, first compound 0.1 µM): 104% | viability, T/C (second compound 10 µM, first compound 0.316 µM): 93.9% | viability, T/C (second compound 10 µM, first compound 1 µM): 86.4% | viability, T/C (second compound 10 µM, first compound 3.16 µM): 38% | viability, T/C (second compound 10 µM, first compound 10 µM): 3.13%

CCN(c1cc(-c2ccc(CN3CCOCC3)cc2)cc(C(=O)NCc2c(C)cc(C)[nH]c2=O)c1C)C1CCOCC1 + NC1CC1c1ccc(-c2cccc(O)c2)cc1
IC50 (second compound 0.1 µM): > 3 µM | IC50 (second compound 0.316 µM): > 3 µM | IC50 (second compound 1 µM): > 3 µM | IC50 (second compound 3.16 µM): > 3 µM | IC50 (second compound 10 µM): > 3 µM | viability, T/C (second compound 0.1 µM, first compound 0.00949 µM): 104% | viability, T/C (second compound 0.1 µM, first compound 0.03 µM): 113% | viability, T/C (second compound 0.1 µM, first compound 0.0949 µM): 93.7% | viability, T/C (second compound 0.1 µM, first compound 0.3 µM): 105% | viability, T/C (second compound 0.1 µM, first compound 0.949 µM): 107% | viability, T/C (second compound 0.1 µM, first compound 3 µM): 105% | viability, T/C (second compound 0.316 µM, first compound 0.00949 µM): 112% | viability, T/C (second compound 0.316 µM, first compound 0.03 µM): 93.9% | viability, T/C (second compound 0.316 µM, first compound 0.0949 µM): 101% | viability, T/C (second compound 0.316 µM, first compound 0.3 µM): 93.6% | viability, T/C (second compound 0.316 µM, first compound 0.949 µM): 102% | viability, T/C (second compound 0.316 µM, first compound 3 µM): 94.9% | viability, T/C (second compound 1 µM, first compound 0.00949 µM): 89.3% | viability, T/C (second compound 1 µM, first compound 0.03 µM): 98.8% | viability, T/C (second compound 1 µM, first compound 0.0949 µM): 95.6% | viability, T/C (second compound 1 µM, first compound 0.3 µM): 96.2% | viability, T/C (second compound 1 µM, first compound 0.949 µM): 94.7% | viability, T/C (second compound 1 µM, first compound 3 µM): 93.2% | viability, T/C (second compound 3.16 µM, first compound 0.00949 µM): 93.7% | viability, T/C (second compound 3.16 µM, first compound 0.03 µM): 95.6% | viability, T/C (second compound 3.16 µM, first compound 0.0949 µM): 93.7% | viability, T/C (second compound 3.16 µM, first compound 0.3 µM): 85.1% | viability, T/C (second compound 3.16 µM, first compound 0.949 µM): 99.7% | viability, T/C (second compound 3.16 µM, first compound 3 µM): 95.2% | viability, T/C (second compound 10 µM, first compound 0.00949 µM): 105% | viability, T/C (second compound 10 µM, first compound 0.03 µM): 91.9% | viability, T/C (second compound 10 µM, first compound 0.0949 µM): 84.6% | viability, T/C (second compound 10 µM, first compound 0.3 µM): 81.6% | viability, T/C (second compound 10 µM, first compound 0.949 µM): 81.8% | viability, T/C (second compound 10 µM, first compound 3 µM): 86.1%
